Results: PMC9918186, “Interaction of Positively Charged Oligopeptides with Blood Plasma Proteins” (International Journal of Molecular Sciences, 2023)

What was measured:
[1] = target: T1, BSA (Bos taurus, UniProt P02769); experiment: ATR-FTIR Amide I deconvolution, secondary structure of BSA with peptide; parameters: species or system bovine; details: for Random Coil of BSA / β-Anti of BSA / β-Sheet of BSA / β-Turn of BSA / α-Helix of BSA: ATR-FTIR Amide I
T1 construct: purchased Sigma Aldrich
From the text: The perturbation in protein structure conformation can be monitored by CD spectroscopy as well as the ATR-FTIR method. These secondary structure changes are confirmation of the interaction between the studied compound and the protein [64, 65, 66, 67]. The range of the wavenumber from 1700 to 1000 cm^−1 is the most varied region and with the richest information on protein spectra. The most characteristic bands are Amide I and Amide II, which originate from the C=O stretching vibration and C–N– stretching coupled with N–H bending, respectively. Amide I was detected for BSA at 1652 cm^−1 and GGF at 1637 cm^−1 (Figure 4). The differences in the position of these bands are connected with the variety in the secondary structure conformation, while Amide II consistently occurred at 1545 and 1546 cm^−1 on the BSA and GGF spectra, respectively (Figure 4). The much less intense peak of Amide III usually accrued by C–N– stretching and bending vibration was only noticed in the BSA spectrum at 1307 cm^−1 (Figure 4). The peaks detected at 1454 cm^−1 (BSA) and 1452 cm^−1 (GGF) appeared by CH3 group symmetric and asymmetric bending vibration (δs, δas). The absorption signal 1400 cm^−1 may be assigned to stretching vibration (ν) caused by the carboxylic group (COO^−). The studied peptides interact with BSA and GGF, which is manifested by a reduction in the intensity of the absorption peaks (Figure 4). With the increase in the ligand concentration in the protein solution, the intensity of the absorption peaks decreased (Figure 4). The Amide I and II in the BSA spectrum decreased above all after binding with L1 and slightly in the samples from L2 and L3. […] Moreover, after the complexation of the investigated peptides with GGF, an increase in the band 1060 cm^−1 was responsible for stretching vibration C–O absorption, which was manifested the most by L2 and L3 compounds.
The shape and intensity variation in the Amide I band is the confirmation of peptide L1, L2, and L3 interaction with the protein’s backbone. The hydrogen bonds in the protein structure are violated after the active molecules’ binding and influence the frequency of the C=O vibrations’ absorption. The frequency of stretching vibrations can be reduced after changes in hydrogen bonding in the protein, whereas the frequency of bending vibrations can be increased after ligand to protein complexation. The Byler and Susi procedure was used to analyse the secondary structure protein conformation. The quantity analysis of the secondary structure in the protein is mostly conducted based on Amide I deconvolution, and it is the most frequently analyzed vibration band, which is very vulnerable to the detection of changes in the structure. The fragment of each normalized spectrum with the Amide I peak was extracted and a second derivate was made. The self-deconvolution and curve fitting by the Gaussian/Lorenzian function allowed determination of the intensity and total area under the peaks, which corresponds with the contribution of the type of structure. The position of each band component may be assigned to a corresponding shape of the secondary structure: the α-helix (1660–1647 cm^−1), β-sheet (1640–1610 cm^−1), β-turn (1660–1680 cm^−1), β-antiparallel (1681–1695 cm^−1), and random coil (1650–1630 cm^−1) structures.
The infrared spectra were measured on Nicolet iS50 FTIR (Thermo Scientific, Waltham, MA, USA) spectrometer equipped with Attenuated Total Reflectance (ATR) accessory. The deuterated triglicyne sulphate (DTGS) detector and KBr beam splitter were applied. The spectral data were recorded within the range of 4000 to 600 cm^−1 with a resolution of 4 cm^−1 and 100 scans were averaged for each spectrum. The measurements were accomplished at room temperature. The concentration of blood plasma proteins BSA (Sigma Aldrich, USA), and GGF (Sigma Aldrich, USA) were 6.5 × 10^−4 moldm^−3. […]

[2] = previous studies; cited from earlier work
From the text: (§1) The subject of this study was oligopeptides with the following sequences: Lys-Dab-Dab-Gly-Orn-Pro-His-Lys-Arg-Lys-Dbt, Lys-Dab-Ala-Gly-Orn-Pro-His-Lys-Arg, and Lys-Dab-Dab-Gly-Orn-Pro-Phe(2-F)-Lys-Arg, which are referred to as L1, L2, and L3, respectively, in the remainder of this work. The investigated oligopeptides consist of an amino group (NH2) in the side chain of unique unnatural amino acids such as Dab (2,4-diaminobutyric acid) and Orn (2,5-diaminopentanoic acid) and standard amino acids such as Lys, and N-terminus and in Dbt in the C-terminal region. Additionally, the presence of the g ...

[3] = system: oxygen-free radical species (ROS); details: previous studies; cited from earlier work
From the text: as §1

T1 sequence (P02769 25-607): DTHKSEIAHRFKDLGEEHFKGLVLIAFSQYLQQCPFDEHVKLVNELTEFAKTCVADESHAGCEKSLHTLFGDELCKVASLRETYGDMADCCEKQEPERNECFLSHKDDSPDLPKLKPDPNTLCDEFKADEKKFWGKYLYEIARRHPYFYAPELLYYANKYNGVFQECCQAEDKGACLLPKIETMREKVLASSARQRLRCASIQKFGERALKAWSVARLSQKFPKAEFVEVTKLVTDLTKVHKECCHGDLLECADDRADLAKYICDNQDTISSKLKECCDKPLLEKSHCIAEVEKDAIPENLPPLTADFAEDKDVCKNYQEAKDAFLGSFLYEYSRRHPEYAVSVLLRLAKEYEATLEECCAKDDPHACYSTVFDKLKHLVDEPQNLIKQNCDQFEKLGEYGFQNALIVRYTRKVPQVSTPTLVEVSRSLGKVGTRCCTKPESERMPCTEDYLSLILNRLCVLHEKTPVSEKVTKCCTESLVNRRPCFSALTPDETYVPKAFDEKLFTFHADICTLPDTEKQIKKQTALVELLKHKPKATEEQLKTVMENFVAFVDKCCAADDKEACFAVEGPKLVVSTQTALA

Lys-Dab-Dab-Gly-Orn-Pro-His-Lys-Arg-Lys-Dbt [L1]
Random Coil of BSA ([1]; BSA/peptide 1:0.5): 26.54%
β-Anti of BSA ([1]; BSA/peptide 1:0.5): 0.77%
β-Sheet of BSA ([1]; BSA/peptide 1:0.5): 3.87%
β-Turn of BSA ([1]; BSA/peptide 1:0.5): 7.47%
α-Helix of BSA ([1]; BSA/peptide 1:0.5, BSA 6.5 × 10^−4 M, room temperature): 61.36%
Random Coil of BSA ([1]; BSA/peptide 1:1.0): 27.93%
α-Helix of BSA ([1]; BSA/peptide 1:1.0): 49.45%
β-Anti of BSA ([1]; BSA/peptide 1:1.0): 0.49%
β-Sheet of BSA ([1]; BSA/peptide 1:1.0): 8.28%
β-Turn of BSA ([1]; BSA/peptide 1:1.0): 13.86%
Random Coil of BSA ([1]; BSA/peptide 1:1.5): 27.61%
α-Helix of BSA ([1]; BSA/peptide 1:1.5): 49.40%
β-Anti of BSA ([1]; BSA/peptide 1:1.5): 0.31%
β-Sheet of BSA ([1]; BSA/peptide 1:1.5): 8.69%
β-Turn of BSA ([1]; BSA/peptide 1:1.5): 13.99%
differences in the secondary structure of BSA ([1]; ATR-FTIR, after peptide addition): 16%
decrease of β-antiparallel framework of albumin ([1]; ATR-FTIR, versus free BSA): about 2%
growth of β-sheet of albumin ([1]; ATR-FTIR, versus free BSA): 7.05%
growth of β-turn of albumin ([1]; ATR-FTIR, versus free BSA): 7.34%
increase in the share of the random structure of albumin ([1]; ATR-FTIR, versus free BSA): 2%
reduction in the α-helix of albumin ([1]; ATR-FTIR, versus free BSA): more than 14%
anti-inflammatory activity [2]: possess anti-inflammatory activity
effect on level of oxygen-free radical species (ROS) [3]: reduce the level of oxygen-free radical species (ROS)
